Like-named read-outs stand apart in the source and are kept apart here.
Experiments:
[1] = target: T1, dihydrofolate reductase (DHFR) (Mus musculus, UniProt P00375); assay: Inhibitory activity against dihydrofolate reductase (DHFR); assay type: biochemical
T1 construct: DHFR was prepared from mouse leukemic cell P388; endogenous in cells; host or cells: P388 mouse leukemia cells (enzyme purified from the cells)
T1 sequence (P00375 1-187): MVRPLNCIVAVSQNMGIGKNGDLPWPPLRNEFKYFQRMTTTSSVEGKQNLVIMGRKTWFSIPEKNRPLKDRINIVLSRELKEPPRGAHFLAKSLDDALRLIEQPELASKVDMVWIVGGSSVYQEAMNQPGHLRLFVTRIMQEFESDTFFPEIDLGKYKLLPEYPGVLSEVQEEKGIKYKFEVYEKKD
Method: DHFR was prepared from mouse leukemic cell P388 according to the method of J. M. Whiteley et al. [see Arch.
A solution of purified DHFR was added to a solution comprising a potassium phosphate buffer solution (pH: 7.5, 75 mM), mercaptoethanol (7.5 mM) and NADPH (0.25 mM) to make up to a total amount of 0.57 mi. Each of the serial dilutions of the compound according to the present invention in an amount of 0.015 ml was added to the mixture prepared above. […] The obtained mixtures were kept at 37° C. for 5 minutes to conduct a reaction.

[2] = tested on: human lung cancer cell A549; assay: Inhibitory activity against proliferation of oncocyte, A549 (MTT method); assay type: cell-based; conditions: 72 h
Method: (§1) Mouse leukemic cell P388, mouse colonic cancer cell Colon 38, human rhinopharyngeal cancer cell KB and human lung cancer cell A549 were used as the oncocytes. […] The microplate was placed in a carbon dioxide incubator containing 5% of CO2 and incubated at 37° C. for one day. The DMSO solution of the compound according to the present invention was diluted with the culture medium to prepare the serial dilutions of the compound. These dilutions were added to the above wells in a predetermined amount. The resulting plate was cultured at 37° C. for 3 days. […] The number of viable cells was determined according to the method of M. C.

Mouse P388 leukemia = assay: Activity against experimental tumor transplanted to mouse (P388 leukemia); assay type: in vivo; conditions: for MST / T/C: i.p., once a day for four days; for ratio of the maximum effective dose to the minimum one: tumor bearing mouse (CDF1)
Method: P388 cells (1×10^6) were inoculated into the abdominal cavity of a female CDF1 mouse of 7 weeks of age and a test drug was administered to the mouse once a day for four days from the next day.
Each test drug was administered intraperitoneally in a state dissolved or suspended in a 4% solution of NaHCO3 in physiological saline, while only a 4% solution of NaHCO3 in physiological saline was administered to a control group. Each control group was composed of ten mice, while each medicated group was composed of six mice. The antitumor activity was evaluated based on the T/C value calculated according to the following formula: [formula]
The measurement was conducted according to the method of R. I. Geran et al. (see Cancer Chemotherapy Reports (Part 3), 31 (1972)).

[3] = tested on: mouse colonic cancer cell Colon 38; assay: Inhibitory activity against proliferation of oncocyte, Colon 38 (MTT method); assay type: cell-based; conditions: 72 h
Method: as §1

[4] = tested on: human rhinopharyngeal cancer cell KB; assay: Inhibitory activity against proliferation of oncocyte, KB (MTT method); assay type: cell-based; conditions: 72 h
Method: as §1

Mouse leukemic cell P388 = assay: Inhibitory activity against proliferation of oncocyte, P388 (MTT method); assay type: cell-based; conditions: 72 h
Method: as §1

LX-1 = assay: Inhibitory activity against proliferation of oncocyte, LX-1; assay type: cell-based; conditions: Homo sapiens, 72 h, Table 2-B, 3 days
[5] = in words; cited from earlier work
[6] = tested on: dihydrofolate reductase (DHFR); conditions: in words; cited from earlier work
[7] = read-out: 50% cell proliferation-inhibitory concentration (IC50), Table 2-A, 3 days
[8] = read-out: 50% cell proliferation-inhibitory concentration (IC50), Table 2-A, KB, 3 days
[9] = Table 2-B, 3 days, read-out: Proliferation-inhibitory activity IC50
[10] = Table 2-B, KB, 3 days, read-out: Proliferation-inhibitory activity IC50

| Compound | IC50 [1] | IC50 [2, 7] | MST (Mouse P388 leukemia; Table 3-A, 50.0 mg/kg) | T/C (Mouse P388 leukemia; Table 3-A, 50.0 mg/kg) | IC50 [3, 7] | IC50 [4, 8] | IC50 (Mouse leukemic cell P388; [7]) | IC50 [2, 9] | T/C (Mouse P388 leukemia; Table 3-B, 0.78 mg/kg) | T/C (Mouse P388 leukemia; Table 3-B, 3.13 mg/kg) | IC50 [3, 9] | IC50 [4, 10] | IC50 (Mouse leukemic cell P388; [9]) | other results |
| --- | --- | --- | --- | --- | --- | --- | --- | --- | --- | --- | --- | --- | --- | --- |
| Nc1nc(N)c2c(ccn2CCCc2ccc(C(=O)N[C@@H](CCC(=O)O)C(=O)O)cc2)n1 [Ex. 2, N-[4-[3-(2,4-Diaminopyrrolo[3,2-d]pyrimidin-5-yl)propyl]benzoyl]-L-glutamat] | 97 nM | 19 nM | 14.8 ± 0.83 | 164% | 40 nM | 9.8 nM | 12 nM |  |  |  |  |  |  | MST (Mouse P388 leukemia; Table 3-A, 3.13 mg/kg): 13.3 ± 0.47; T/C (Mouse P388 leukemia; Table 3-A, 3.13 mg/kg): 148%; MST (Mouse P388 leukemia; Table 3-A, 6.25 mg/kg): 13.5 ± 0.50; T/C (Mouse P388 leukemia; Table 3-A, 6.25 mg/kg): 150%; MST (Mouse P388 leukemia; Table 3-A, 25.0 mg/kg): 14.0 ± 0.71; T/C (Mouse P388 leukemia; Table 3-A, 25.0 mg/kg): 156%; MST (Mouse P388 leukemia; Table 3-A, 100.0 mg/kg): 14.8 ± 0.83; T/C (Mouse P388 leukemia; Table 3-A, 100.0 mg/kg): 164%; MST (Mouse P388 leukemia; Table 3-A, 200.0 mg/kg): 16.0 ± 0.82; T/C (Mouse P388 leukemia; Table 3-A, 200.0 mg/kg): 178%; ratio of the maximum effective dose to the minimum one (Mouse P388 leukemia): about 60 |
| CC(CCn1ccc2nc(N)nc(N)c21)c1ccc(C(=O)N[C@@H](CCC(=O)O)C(=O)O)cc1 (stereo partly drawn) [Ex. 4, N-[4-[3-(2,4-Diaminopyrrolo[3,2-d]pyrimidin-5-yl)-1-methylpropyl]benzoyl]-L-glutamate] | 90 nM | 63 nM | 18.5 ± 1.12 | 185% | 129 nM | 31 nM | 16 nM |  |  |  |  |  |  |  |
| CCC(CCn1ccc2nc(N)nc(N)c21)c1ccc(C(=O)N[C@@H](CCC(=O)O)C(=O)O)cc1 (stereo partly drawn) [Ex. 6, N-[4-[3-(2,4-Diaminopyrrolo[3,2-d]pyrimidin-5-yl)-1-ethylpropyl]benzoyl]-L-glutamate] | 1000 nM | 940 nM |  |  | 340 nM | 30 nM | 12 nM |  |  |  |  |  |  |  |
| CCC(Cn1ccc2nc(N)nc(N)c21)c1ccc(C(=O)N[C@@H](CCC(=O)O)C(=O)O)cc1 (stereo partly drawn) [Ex. 9, N-[4-[2-(2,4-Diaminopyrrolo[3,2-d]pyrimidin-5-yl)-1-ethylethyl]benzoyl]-L-glutamate] | 30 nM | 100 nM | 15.0 ± 0.71 | 167% | 39 nM | 32 nM | 17 nM |  |  |  |  |  |  | MST (Mouse P388 leukemia; Table 3-A, 0.78 mg/kg): 16.3 ± 1.02; T/C (Mouse P388 leukemia; Table 3-A, 0.78 mg/kg): 181%; MST (Mouse P388 leukemia; Table 3-A, 3.13 mg/kg): 14.8 ± 0.83; T/C (Mouse P388 leukemia; Table 3-A, 3.13 mg/kg): 164%; ratio of the maximum effective dose to the minimum one (Mouse P388 leukemia): about 60 |
| Nc1nc(N)c2c(n1)CCC2CCc1ccc(C(=O)N[C@@H](CCC(=O)O)C(=O)O)cc1 (stereo partly drawn) [Ex. 103, N-{4-[2-(2,4-diamino-6,7-dihydro-5H-cyclopenta[d]pyrimidin-5-yl)ethyl]benzoyl}-L-glutamic] | 72 nM |  |  |  |  |  |  | 9.8 nM | 129% | 135% | 8.9 nM | 3.8 nM | 7.7 nM | T/C (Mouse P388 leukemia; Table 3-B, 50 mg/kg): 148% |
| Nc1nc(N)c2c(n1)CCC2CCCc1ccc(C(=O)N[C@@H](CCC(=O)O)C(=O)O)s1 (stereo partly drawn) [Ex. 105, N-{5-[3-(2,4-diamino-6,7-dihydro-5H-cyclopenta[d]pyrimidin-5-yl)propyl]-2-thenoyl}-L-glutamic acid] | 4 nM |  |  |  |  |  |  | 2.4 nM | 176% | 151% | 0.87 nM | 0.92 nM | 1.8 nM | T/C (Mouse P388 leukemia; Table 3-B, 0.05 mg/kg): 126%; T/C (Mouse P388 leukemia; Table 3-B, 0.20 mg/kg): 151%; IC50 (LX-1): 0.67 nM |
| Nc1nc(N)c2c(n1)CCC2CCCc1ccc(C(=O)N[C@@H](CCC(=O)O)C(=O)O)cc1 (some centres unmarked) [Ex. 108] |  |  |  |  |  |  |  | 9.3 nM | 150% | 170% | 4.1 nM | 1.6 nM | 2.7 nM | T/C (Mouse P388 leukemia; Table 3-B, 0.20 mg/kg): 133% |
| CN(Cc1cnc2nc(N)nc(N)c2n1)c1ccc(C(=O)N[C@@H](CCC(=O)O)C(=O)O)cc1 [MTX, Methotrexate, reference compound] |  | 80 nM |  |  | 60 nM |  | 16 nM | 88 nM |  |  | 28 nM | 11 nM | 22 nM | potent adverse effects [5]: bone marrow suppression and degradation of the intestinal epithelium; IC50 ([4]; read-out: 50% cell proliferation-inhibitory concentration (IC50)): 20 nM; inhibitory activity against dihydrofolate reductase (DHFR) [6]: high inhibitory activity |
